Consider four compounds from patent US20060106099A1, “Novel inhibitors of ubiquitin isopeptidases” (priority 2002, published 2006).

One test has as its system HCT 116 (p53 wt). Put plainly: MTS cytotoxicity, HCT 116 (p53 wt). In kind it is cell-based. As to conditions: Homo sapiens, log of EC50 in μM, 48 h, read-out: Log EC50 +/− Standard Error of Log EC50, HCT 116 (p53 wt) (converted). An excerpt:
(§1) Cytotoxicity in Human Colon Tumor (HCT) Cell Lines. To determine if punaglandins elicit cytotoxicity independently of the tumor-suppressor p53, as do other dienone prostaglandins, several cytotoxicity assays were employed. First, cell death effects of all isolated punaglandins were investigated in pairs of isogenic colon cancer cell lines, the HCT 116^+/+ competent cell line and HCT 116^−/− null cell lines. HCT 116^+/+ cells are homozygous for p53^+/+ and p21^+/+; where as, HCT 116^−/− cells lack both alleles for p53 (p53^−/−) or p21 (p21^−/−).
(§2) Each cell line was seeded simultaneously in 96-well plates and incubated for 24 h before treatment with individual punaglandins at various concentrations for 48 additional h. Cytotoxicity was determined using MTS and absorbances were recorded at 490 nm. Half maximal effective concentrations (EC50) and Log EC50s were calculated from a concentration-response curve generated using GraphPad Prism (Table 1).

The test system of a further test is HCT 116 (p53^−/−). Put plainly: MTS cytotoxicity, HCT 116 (p53−/−). In kind it is cell-based. As to conditions: Homo sapiens, log of EC50 in μM, 48 h, read-out: Log EC50 +/− Standard Error of Log EC50, HCT 116 (p53−/−) (converted).
Text: as §1, §2

For the next test, the system named is HCT 116 (p21 wt). Put plainly: MTS cytotoxicity, HCT 116 (p21 wt). It is filed as cell-based. As to conditions: Homo sapiens, log of EC50 in μM, 48 h, read-out: Log EC50 +/− Standard Error of Log EC50, HCT 116 (p21 wt) (converted).
Text: as §1, §2

The test system of the next test is HCT 116 (p21^−/−). Put plainly: MTS cytotoxicity, HCT 116 (p21−/−). In kind it is cell-based. As to conditions: Homo sapiens, log of EC50 in μM, 48 h, read-out: Log EC50 +/− Standard Error of Log EC50, HCT 116 (p21−/−) (converted).
Text: as §1, §2

Test [1] relates to ubiquitin isopeptidases. In words: In vivo isopeptidase activity after treatment of RKO cells, Ub-PEST. It is filed as cell-based, human. As to conditions: 6 h. Here is the method: Isopeptidase Assay. It was hypothesized that the punaglandins would inhibit ubiquitin-isopeptidase activity of the proteasome pathway as does the prostaglandin, Δ^12-PGJ2 (1), but with greater potency because of the chlorinated C-10. To validate this theory, cellular isopeptidase enzymatic activity was measured in vitro after treatment with individual punaglandins, PNG 2 (6), PNG 3 (7), and Z-PNG 4 (9) and in vivo after individual treatment with PNG 4 (8) and PNG 6 (10). This activity was determined utilizing the simple isopeptidase substrate, ubiquitin-PEST (Ub-PEST), a full/length ubiquitin (Ub) molecule fused with an 18-amino acid C-terminal peptide extension that most isopeptidases use as a substrate. The polypeptide extension contains regions rich in Pro (P), Glu (E), Ser (S), and Thr (T) residues called PEST motifs that are responsible for rapid degradation of these and other unstable proteins. Ub isopeptidases specifically cleave this peptide extension, yielding free, full-length Ub. Both the fused Ub-PEST (10.5 kDa) and the cleaved, free Ub (8.5 kDa) can be observed via immunochemical detection.
In vivo Isopeptidase Activity. To investigate whether punaglandins can inhibit isopeptidase activity in vivo, isopeptidase activity was analyzed after punaglandin treatment of RKO cells. PNG 4 (8) and PNG 6 (10) were selected for in vivo investigation because they differ only in enone functionality, where (8) is a dienone and (10) an enone. RKO cells were incubated with 1 μM, 4 μM, or 7 μM of PNG 4 (8) and PNG 6 (10). […] As a positive control, cells were treated with a known isopeptidase inhibitor, shikoccin (SK). After 6 h drug treatment, cells were lysed and protein concentration adjusted to 0.3 mg/mL per sample. Each sample was subsequently incubated with 50 μg/mL of Ub-PEST. The reaction was terminated after 20 min and the respective amounts of Ub-PEST (10 kDa) and free Ub product (8.5 kDa) were determined by SDS-PAGE fractionation.

In test [2] the test system is ubiquitin isopeptidases. In words: Ubiquitin isopeptidase activity, Ub-PEST substrate, lysates of treated RKO and HCT 116 cells. In kind it is cell-based, human. As to conditions: cells treated 6, 20 or 60 μM, 12 h. Here is the method: A) Inhibition of isopeptidase proteolysis of Ub-PEST substrate. RKO and HCT 116 cells were treated with DMSO vehicle, 6, 20, or 60 μM of Δ12-PGJ2, DBA, NSC-302979, or curcumin, 60 μM PGB1, 60 μM NSC-156236, or 60 μM DPTP for 12 h, 37° C. Cell lysates from each treatment were incubated with Ub-PEST, as described in materials and methods. Samples were fractionated by SDS-PAGE and proteins detected with ubiquitin epitopes immunochemically (HCT 116 ^+/+ western blot shown as example of raw data). […] B) Inhibition of isopeptidase activity by test panel compounds. Isopeptidase activity was determined by measuring via densitometry, the amount of Ub generated by isopeptidase cleavage of Ub-PEST. Bar graph patterns are DMSO vehicle (black), Δ12-PGJ2 (hatched), DBA (horizontal lines), NSC-302979 (white), PGB1 (diagonally downward right lines), and NSC-156236 (diagonally downward left lines). The amount of Ub generated in the vehicle treated sample (panel A, lane 2) is arbitrarily designated 100%.
Cellular isopeptidase enzymatic activity was measured with two assays that used different substrates. In one assay ubiquitin-PEST (Ub-PEST) was used, a full-length ubiquitin molecule with an 18 amino acid c-terminal peptide extension (total mass=10.5 kDa). Ubiquitin isopeptidases specifically cleave the 18 amino acid peptide extension, releasing full-length ubiquitin (8.5 kDa).
Briefly, 6×10^5 cells were incubated with 0-60 μM of test compounds for 12 hrs. Cells were lysed in 50 μL of 25 mM HEPES, 5 mM EDTA, 0.1% CHAPS, 5 mM ATP, pH 7.5. The protein concentration of each sample was adjusted to 0.3 mg/mL and incubated with 50 μg/mL Ub-PEST for 45 minutes at 25° C. Under these conditions, Ub-PEST hydrolysis occurs at a linear rate. 20 μL samples were mixed with 20 μL 2× Laemmli buffer, boiled briefly, and fractionated by SDSPAGE. Isopeptidase activity was monitored by determining the amount of product (8.5 kDa ubiquitin) formation.

In test [3] the test system is ubiquitin isopeptidases. In words: Ubiquitin isopeptidase activity, z-LRGG-AMC substrate, lysates of treated RKO and HCT 116 cells. In kind it is cell-based, human. As to conditions: cells treated 6, 20 or 60 μM, 12 h. As to the method:
RKO (upper) and HCT 116 ^+/+ cells (lower) were treated with DMSO vehicle, 6, 20, or 60 μM of Δ12-PGJ2, DBA, NSC-302979, or curcumin, 60 μM PGB1, 60 μM NSC-156236, or 60 μM DPTP for 12 h at 37° C. Cell lysates (0.5 mg/mL) from each treatment were incubated with the isopeptidase substrate, z-LRGG-AMC, for 3 h, 37° C. The amount of AMC cleaved by isopeptidase was determined fluorometrically, as described in Materials and Methods.
The second assay used a fluorescent tetrapeptide, z-LRGG-AMC, as a substrate that mimics the carboxy-terminus of ubiquitin. Isopeptidase activity hydrolyzes the bond between the c-terminal glycine and the fluorophore. This tetrapeptide also undergoes slow proteolysis by the catalytic subunit of the proteasome. To minimize this background rate of proteolysis cell lysates were incubated with 30 μM MG115 for 30 minutes at 4° C., prior to substrate incubation (>90% proteasome inhibition). Cells were teeated as above, lysed in 250 μL of lysis buffer per sample, and adjusted protein concentration to 0.5 mg/mL prior to incubation with MG115. Next, z-LRGG-AMC substrate was added and fluorescence was quantified of the AMC moiety cleaved by isopeptidase action.

Test [4] concerns polyubiquitin conjugates in RKO-E6 cells. In words: Accumulation of polyubiquitin in RKO-E6 cells (immunoblot). In kind it is cell-based, human. As to conditions: EC80 or 60 μM, 6-24 h. As to the method: (§3) A) Accumulation of polyubiquitin. RKO-E6 cells were treated with DMSO vehicle for 24 h, 37° C., or with the concentrations of test compounds that gave 80% cell death (as determined by cell viability assay at 48 h) for 6, 12, or 24 h, 37° C. […] Schematic depicting p53 degradation via the proteasome pathway in RKO cells versus RKO-E6 cells. The activity of the HPV E6 oncoprotein hastens p53 degradation in RKO-E6 cells. ii. RKO and RKO-E6 cells were treated with vehicle, etoposide (50 μM), MG115 (20 μM), Δ12-PGJ2 (60 μM), NSC-302979 (20 μM, DBA (20 μM), curcumin (60 μM), PGB1 (60 μM), NSC-156236, (60 XM)or DPTP 60 μM for 6 h, 37° C. Lysates were fractionated by SDS-PAGE and their p53 content determined immunochemically. iii. p53 levels were measured by densitometry and the ratio of p53 protein in RKO-E6 cells/RKO cells calculated.
(§4) The medium was removed and cells lysed in 50 mM Tris, pH 7.4, 100 mM NaCl, 2 mM EDTA with 0.1% SDS, 0.1% deoxycholate, 1× complete protease inhibitor mixture. Protein concentration was measured by the Bradford method. Equal portions of the total cell lysate were fractionated from each sample (12.5 μg of protein) by SDS-PAGE. Proteins were transferred to poly(vinylidene difluoride) blocked with 5% (w/v) nonfat dry milk in Trisbuffered saline [20 mM Tris-HCl, pH 7.5, 100 mM sodium chloride, 0.1% (v/v) Tween 20]. Proteins were detected immunochemically by using primary antibodies directed against p53 (1:4000) or ubiquitin (1:1000), followed by horseradish peroxidase-conjugated secondary antibodies (1:4000). Antigen-antibody complexes were detected with enhanced chemiluminescence reagents. Gels were scanned and quantified intensities using Kodak 1D Image Analysis Software.
(In general: Immunoblotting shows a protein as a band on a membrane.)

The test system of the next test is p53. Put plainly: p53 accumulation, ratio RKO-E6 cells/RKO cells (immunoblot, densitometry). It is filed as cell-based, human. As to conditions: 6 h; etoposide 50 μM, MG115, NSC-302979, DBA 20 μM, others 60 μM. Here is the method:
as §3, §4

The subject of a further test is RKO cells. In words: MTT cell viability assay, RKO cells. As to conditions: 48 h; for cell death in RKO compared with RKO-E6 cells: MTT, isogenic pair; for EC50: Homo sapiens, RKO, read-out: Cytotoxic Potency (EC50) RKO. For orientation: Tetrazolium assays rely on reduction of a dye to a coloured formazan, in cell work by metabolically active cells.
Another test concerns RKO-E6 cells. In words: MTT cell viability assay, RKO-E6 cells. As to conditions: for EC50: Homo sapiens, RKOE6, 48 h, read-out: Cytotoxic Potency (EC50) RKO-E6.
In a further test the test system is HCT 116 +/+ cells. In words: MTT cell viability assay, HCT 116 p53 +/+ cells. As to conditions: for cell death in HCT 116 +/+ compared with HCT 116 −/− cells: 48 h, MTT, isogenic pair; for EC50: Homo sapiens, HCT-116, 48 h, read-out: Cytotoxic Potency (EC50) HCT +/+.
A further test deals with HCT 116 −/− cells. Put plainly: MTT cell viability assay, HCT 116 p53 −/− cells. As to conditions: Homo sapiens, HCT-116, 48 h, read-out: Cytotoxic Potency (EC50) HCT −/−.

Some results are limits rather than exact numbers.

Procedure for HCT 116 +/+ cells: Cell viability was measured with MTT reagent as described in materials and methods.
Cell viability was detected by the MTT assay. Briefly, 1×10^5 cells were incubated per well of a sterile, 96-well assay plate with 0-60 μM of test compounds for 48 hours. MTT reagent was added to each well, final concentration of 0.5 mg/mL, and incubated for an additional 3 hours. The media was aspirated and remaining MTT reagent from each well and added 100 μL of HCl:isopropanol (1:24). The absorbance of each sample was measured at 405 nm.

Regarding `CCCCC/C=C\C[C@@]1(O)C=C(Cl)C(=O)[C@@H]1[C@@H](OC(C)=O)[C@H](OC(C)=O)[C@H](CCCC(=O)OC)OC(C)=O` [PNG 2], the EC50 with HCT 116 (p53 wt) is 0.0398 µM; with HCT 116 (p53^−/−) it was 0.0398 µM; with HCT 116 (p21 wt), 0.0468 µM; with HCT 116 (p21^−/−), 0.0398 µM.
Turning to `C[C@@H]1C[C@@H]([C@H](O)CC2CC(=O)NC(=O)C2)C(=O)[C@@H](C)C1` [cycloheximide], the “effect on Ub-PEST degradation, control substances” value with ubiquitin isopeptidases [1] is listed as 1:1 ratio of Ub-PEST to free Ub.
For the compound `O=c1cc(-c2ccccc2)sc(-c2ccccc2)c1` [DPTP, 2,6-Diphenyl-4H-thiopyran-4-one], the “inhibition of isopeptidase cleavage of Ub-PEST” value in the test with ubiquitin isopeptidases [2] is given as “did not inhibit isopeptidase activity”. Also, the “inhibition of z-LRGG-AMC hydrolysis by ubiquitin isopeptidases” value in the test with ubiquitin isopeptidases [3] is given as “did not”. The “cellular accumulation of polyubiquitin conjugates” value in test [4] is “did not cause appreciable cellular accumulation of ubiquitin conjugates”. The “ratio of p53 protein [RKO-E6 cells/RKO cells]” value in the test with p53 is “significantly less than unity”. Also, in the test on RKO cells, the “cell death in RKO compared with RKO-E6 cells” value was “did not cause significant cell death”. Moreover, the EC50 with RKO cells, with RKO-E6 cells, in the test on HCT 116 +/+ cells and with HCT 116 −/− cells was > 60 µM in each case. For the same compound, the “cell death in HCT 116 +/+ compared with HCT 116 −/− cells” value in the test on HCT 116 +/+ cells is “did not cause significant cell death”.
As to `O=C(C=Cc1ccccc1)C=Cc1ccccc1` [DBA, dibenzylideneacetone], the “inhibition of isopeptidase cleavage of Ub-PEST” value in the test with ubiquitin isopeptidases [2] is “inhibited isopeptidase activity in a concentration dependent manner”. In addition, in the test with ubiquitin isopeptidases [3], the “inhibition of z-LRGG-AMC hydrolysis by ubiquitin isopeptidases” value was “inhibited ubiquitin isopeptidase activity”. The “cellular accumulation of polyubiquitin conjugates” value in test [4] is on record as “protein species with polyubiquitin conjugation accumulated in cells”. Further, the “ratio of p53 protein [RKO-E6 cells/RKO cells]” value with p53 is given as “approached unity”. Moreover, in the test on RKO cells, the “cell death in RKO compared with RKO-E6 cells” value is “caused cell death with equal potency and efficacy”. Further, the EC50 in the test with RKO cells was determined as 7 ± 0.6 µM; in the test with RKO-E6 cells, 6.5 ± 1.1 µM; in the test on HCT 116 +/+ cells it was 3.2 ± 0.1 µM; in the test on HCT 116 −/− cells, 3.8 ± 0.1 µM. Further, the “EC80, concentration that gave 80% cell death” value with RKO-E6 cells (cell viability assay at 48 h, RKO-E6 cells) is 12.0 µM. Also, the “cell death in HCT 116 +/+ compared with HCT 116 −/− cells” value in the test with HCT 116 +/+ cells was “caused cell death with equal potency”.
